Assay results reported in US11331299B2, “Medicinal use of serrulatane diterpenes” (The University of Sydney, priority 2016, dated 2022).
Like-named read-outs stand apart in the source and are kept apart here.

System: 280 human cancer cell lines
Experiment: OncoPanel cell proliferation assay (10-day)
Type: cell-based
Conditions: for EC50: read-out: Cell Count EC50; for IC50: read-out: Cell Count IC50
[1] = Homo sapiens, 22Rv1, 22Rv1, Prostate
[2] = Homo sapiens, 786-0, 786-O, Kidney
[3] = Homo sapiens, A7, Skin (Melanoma)
[4] = Homo sapiens, A 172, A172, CNS - Glioma
[5] = Homo sapiens, A253, A-253, Head and Neck
[6] = Homo sapiens, A388, Head and Neck
[7] = Homo sapiens, A498, A498, Kidney
[8] = Homo sapiens, A549, A549, Lung - NSCLC
[9] = Homo sapiens, A673, A-673, Soft Tissue - Sarcoma
[10] = Homo sapiens, A704, A-704, Kidney
[11] = Homo sapiens, A-375, A375, Skin (Melanoma)
[12] = Homo sapiens, A-427, A427, Lung - NSCLC
[13] = Homo sapiens, A-431, A431, Head and Neck
[14] = Homo sapiens, AN3-CA, AN3 CA, Female GU - Uterus
[15] = Homo sapiens, ARH-77, ARH-77, Myeloma
[16] = Homo sapiens, ASPC1, AsPC-1, Pancreas
[17] = Homo sapiens, AU565, AU565, Breast
[18] = Homo sapiens, BCP-1, BCP-1, Lymphoma
[19] = Homo sapiens, BE(2)-C, BE(2)C, CNS - Neuroblastoma
[20] = Homo sapiens, BFTC-905, BFTC-905, Bladder
[21] = Homo sapiens, BHT-101, BHT-101, Endocrine - Thyroid
[22] = Homo sapiens, BM-1604, BM-1604, Prostate
[23] = Homo sapiens, BPH-1, BPH1, Prostate
[24] = Homo sapiens, BT-20, BT20, Breast

CC(C)=CCC[C@H](CO)[C@@H]1CC[C@@H](C)c2c1cc(C)c(O)c2O [Compound 1, 7,8,18-trihydroxyserrulat-14-ene]
Number of cell types, GI Activity Potent (GI50 range 0.03-0.099 μM, of 280 cell types): 0 | Number of cell types, GI Activity moderately potent (GI50 range 0.1-0.99 μM, of 280 cell types): 23 | Number of cell types, GI Activity Strong (GI50 range 1-2.99 μM, of 280 cell types): 149 | Number of cell types, GI Activity moderately strong (GI50 range 3-9.99 μM, of 280 cell types): 99 | Number of cell types, GI Activity weak (GI50 range 10-30.00 μM, of 280 cell types): 6 | Number of cell types, GI Activity very weak (GI50 range >30 μM, of 280 cell types): 1 | EC50 [1]: 4080 nM | GI50 (Homo sapiens, 22Rv1, 22Rv1, Prostate, read-out: Cell Count GI50): 4060 nM | IC50 [1]: 4080 nM | GI50 (Homo sapiens, 149 cell lines with strong activity, read-out: GI50): 1000 to 2980 nM | GI50 (Homo sapiens, 174 cell lines with very potent to strong activity, read-out: GI50): 6 to 2980 nM | EC50 (Homo sapiens, 647-V, Bladder): 3120 nM | GI50 (Homo sapiens, 647-V, Bladder, read-out: Cell Count GI50): 3110 nM | IC50 (Homo sapiens, 647-V, Bladder): 3120 nM | EC50 (Homo sapiens, 769-P, Kidney): 850 nM | GI50 (Homo sapiens, 769-P, Kidney, read-out: Cell Count GI50): 850 nM | IC50 (Homo sapiens, 769-P, Kidney): 850 nM | EC50 [2]: 2050 nM | GI50 (Homo sapiens, 786-0, 786-O, Kidney, read-out: Cell Count GI50): 2050 nM | IC50 [2]: 2050 nM | EC50 (Homo sapiens, 5637, Bladder): 3380 nM | GI50 (Homo sapiens, 5637, Bladder, read-out: Cell Count GI50): 3320 nM | IC50 (Homo sapiens, 5637, Bladder): 3380 nM | EC50 [3]: 940 nM | GI50 (Homo sapiens, A7, Skin (Melanoma), read-out: Cell Count GI50): 940 nM | IC50 [3]: 940 nM | EC50 (Homo sapiens, A101D): 8420 nM | GI50 (Homo sapiens, A101D, read-out: Cell Count GI50): 8250 nM | IC50 (Homo sapiens, A101D): 8420 nM | EC50 [4]: 1120 nM | GI50 (Homo sapiens, A 172, A172, CNS - Glioma, read-out: Cell Count GI50): 1140 nM | IC50 [4]: 1150 nM | EC50 [5]: 4130 nM | GI50 (Homo sapiens, A253, A-253, Head and Neck, read-out: Cell Count GI50): 4130 nM | IC50 [5]: 4140 nM | EC50 [6]: 1660 nM | GI50 (Homo sapiens, A388, Head and Neck, read-out: Cell Count GI50): 1660 nM | IC50 [6]: 1670 nM | EC50 [7]: 1290 nM | GI50 (Homo sapiens, A498, A498, Kidney, read-out: Cell Count GI50): 1290 nM | IC50 [7]: 1290 nM | EC50 [8]: 1660 nM | GI50 (Homo sapiens, A549, A549, Lung - NSCLC, read-out: Cell Count GI50): 1660 nM | IC50 [8]: 1670 nM | EC50 [9]: 1540 nM | GI50 (Homo sapiens, A673, A-673, Soft Tissue - Sarcoma, read-out: Cell Count GI50): 1540 nM | IC50 [9]: 1550 nM | EC50 [10]: 1570 nM | GI50 (Homo sapiens, A704, A-704, Kidney, read-out: Cell Count GI50): 1540 nM | IC50 [10]: 1600 nM | EC50 [11]: 1050 nM | GI50 (Homo sapiens, A-375, A375, Skin (Melanoma), read-out: Cell Count GI50): 1050 nM | IC50 [11]: 1050 nM | EC50 [12]: 4520 nM | GI50 (Homo sapiens, A-427, A427, Lung - NSCLC, read-out: Cell Count GI50): 4500 nM | IC50 [12]: 4520 nM | EC50 [13]: 2800 nM | GI50 (Homo sapiens, A-431, A431, Head and Neck, read-out: Cell Count GI50): 2800 nM | IC50 [13]: 2810 nM | EC50 (Homo sapiens, ACHN, Kidney): 1740 nM | GI50 (Homo sapiens, ACHN, Kidney, read-out: Cell Count GI50): 1740 nM | IC50 (Homo sapiens, ACHN, Kidney): 1740 nM | EC50 (Homo sapiens, AGS, Stomach): 700 nM | GI50 (Homo sapiens, AGS, Stomach, read-out: Cell Count GI50): 700 nM | IC50 (Homo sapiens, AGS, Stomach): 700 nM | EC50 [14]: 1520 nM | GI50 (Homo sapiens, AN3-CA, AN3 CA, Female GU - Uterus, read-out: Cell Count GI50): 1490 nM | IC50 [14]: 1520 nM | EC50 [15]: 1950 nM | GI50 (Homo sapiens, ARH-77, ARH-77, Myeloma, read-out: Cell Count GI50): 1950 nM | IC50 [15]: 1970 nM | EC50 [16]: 2870 nM | GI50 (Homo sapiens, ASPC1, AsPC-1, Pancreas, read-out: Cell Count GI50): 2840 nM | IC50 [16]: 2870 nM | EC50 [17]: 1620 nM | GI50 (Homo sapiens, AU565, AU565, Breast, read-out: Cell Count GI50): 1610 nM | IC50 [17]: 1620 nM | EC50 (Homo sapiens, BC-1, Lymphoma): 1520 nM | GI50 (Homo sapiens, BC-1, Lymphoma, read-out: Cell Count GI50): 1510 nM | IC50 (Homo sapiens, BC-1, Lymphoma): 1520 nM | EC50 [18]: 3180 nM | GI50 (Homo sapiens, BCP-1, BCP-1, Lymphoma, read-out: Cell Count GI50): 3140 nM | IC50 [18]: 3180 nM | EC50 [19]: 4230 nM | GI50 (Homo sapiens, BE(2)-C, BE(2)C, CNS - Neuroblastoma, read-out: Cell Count GI50): 4180 nM | IC50 [19]: 4230 nM | EC50 [20]: 1790 nM | GI50 (Homo sapiens, BFTC-905, BFTC-905, Bladder, read-out: Cell Count GI50): 1780 nM | IC50 [20]: 1790 nM | EC50 [21]: 2160 nM | GI50 (Homo sapiens, BHT-101, BHT-101, Endocrine - Thyroid, read-out: Cell Count GI50): 2170 nM | IC50 [21]: 2170 nM | EC50 [22]: 2580 nM | GI50 (Homo sapiens, BM-1604, BM-1604, Prostate, read-out: Cell Count GI50): 2560 nM | IC50 [22]: 2580 nM | EC50 [23]: 5240 nM | GI50 (Homo sapiens, BPH-1, BPH1, Prostate, read-out: Cell Count GI50): 5200 nM | IC50 [23]: 5240 nM | EC50 [24]: 1590 nM | GI50 (Homo sapiens, BT-20, BT20, Breast, read-out: Cell Count GI50): 1530 nM | IC50 [24]: 1610 nM
